{"source": "ChEMBL document CHEMBL1201862", "about": "“PubChem BioAssay data set” (2004)", "key": {"[1]": {"test": "IC50 of Artemis nuclease activity blockers – biochemical, fluorescence intensity, dose response (AID 720701);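 further: Artemis endonuclease enzyme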", "type": "functional"}, "Cytochrome P450 2C19": {"target": "Cytochrome P450 2C19 (Homo sapiens, UniProt P33261)", "sequence (P33261 whole entry)": "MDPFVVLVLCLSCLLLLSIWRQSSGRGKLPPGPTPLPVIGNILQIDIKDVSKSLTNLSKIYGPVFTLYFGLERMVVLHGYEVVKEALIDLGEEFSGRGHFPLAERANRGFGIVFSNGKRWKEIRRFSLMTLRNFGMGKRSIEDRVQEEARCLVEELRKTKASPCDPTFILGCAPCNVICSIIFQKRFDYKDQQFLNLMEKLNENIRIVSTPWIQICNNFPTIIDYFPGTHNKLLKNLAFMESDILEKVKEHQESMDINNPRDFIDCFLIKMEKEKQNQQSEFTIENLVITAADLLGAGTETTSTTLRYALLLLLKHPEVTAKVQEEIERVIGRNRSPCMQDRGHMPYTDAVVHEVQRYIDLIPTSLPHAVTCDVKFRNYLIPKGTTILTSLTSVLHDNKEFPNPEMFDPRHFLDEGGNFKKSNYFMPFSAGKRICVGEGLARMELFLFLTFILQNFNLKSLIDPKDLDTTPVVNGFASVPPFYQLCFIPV", "test": "Cytochrome panel assay with activity outcomes. Panel member name: p450-cyp2c19 Compounds with AC50 equal or less than 10 uM are considered active", "type": "functional", "details": "read-out: AC50"}, "Cytochrome P450 1A2": {"target": "T1, Cytochrome P450 1A2 (Homo sapiens, UniProt P05177)", "T1 sequence (P05177 whole entry)": "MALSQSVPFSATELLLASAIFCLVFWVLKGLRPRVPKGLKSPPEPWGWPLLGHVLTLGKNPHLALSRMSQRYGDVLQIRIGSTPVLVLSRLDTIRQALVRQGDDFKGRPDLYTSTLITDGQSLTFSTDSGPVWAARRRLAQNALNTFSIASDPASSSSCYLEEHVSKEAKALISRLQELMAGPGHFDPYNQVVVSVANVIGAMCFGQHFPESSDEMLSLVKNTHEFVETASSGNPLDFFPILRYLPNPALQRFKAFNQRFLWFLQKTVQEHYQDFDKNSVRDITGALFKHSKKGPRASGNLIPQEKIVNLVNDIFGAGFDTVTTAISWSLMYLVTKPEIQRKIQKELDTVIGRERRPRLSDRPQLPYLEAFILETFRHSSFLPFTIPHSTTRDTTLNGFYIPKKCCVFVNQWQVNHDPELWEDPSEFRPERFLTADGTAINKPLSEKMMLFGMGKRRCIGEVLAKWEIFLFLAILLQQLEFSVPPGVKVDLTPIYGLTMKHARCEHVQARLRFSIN"}, "[2]": {"test": "HIV-1 Vif–A3G interaction blockers – biochemical, TR-FRET, GST-Vif 1-94, biotin-A3G peptide, dose response retest, primary screen (AID 1117319);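 further: inhibitors lower the FRET signal by blocking Vif and A3G binding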", "type": "functional"}, "Vero [3]": {"system": "Vero", "test": "mammalian cell viability reduction – secondary assay, cytotoxicity control for West Nile virus antiviral project, dose response (AID 1650)", "type": "functional", "details": "Chlorocebus sabaeus"}, "Vero [4]": {"system": "Vero", "test": "inhibition of WNV-induced cytopathic effect – cell-based, CPE readout (AID 1621)", "type": "functional", "details": "Chlorocebus sabaeus"}, "Caspase-6": {"target": "T2, Caspase-6 (Homo sapiens, UniProt P55212)", "T2 sequence (P55212 whole entry)": "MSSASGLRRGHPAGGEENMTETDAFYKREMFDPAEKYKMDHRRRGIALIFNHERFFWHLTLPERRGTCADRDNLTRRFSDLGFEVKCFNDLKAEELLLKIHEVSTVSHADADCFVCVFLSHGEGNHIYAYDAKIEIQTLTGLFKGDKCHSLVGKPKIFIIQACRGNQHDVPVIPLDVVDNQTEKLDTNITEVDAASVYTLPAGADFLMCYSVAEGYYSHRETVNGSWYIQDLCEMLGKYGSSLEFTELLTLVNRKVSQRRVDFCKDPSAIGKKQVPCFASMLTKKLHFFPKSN", "test": "inhibition of CASP6 peptide cleavage – biochemical, VEID-R110 fluorescence, cherry-pick, dose response (AID 720632)"}, "[5]": {"test": "reduced cellular PGC1a acetyl-lysine signal – cell-based, cherry-picked samples, dose response (AID 720514);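 further: potency may reflect raised or lowered acetylation signal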", "type": "functional"}, "[6]": {"test": "Luminescence Cell-Based Dose Confirmation HTS to Identify Inhibitors of Platelet Dense Granule Release. [Related pubchem assays: 1663 (Primary HTS), 1678 (Summary of Project)]", "type": "functional"}, "[7]": {"target": "Luciferin 4-monooxygenase (Photinus pyralis, UniProt P08659)", "sequence (P08659 whole entry)": "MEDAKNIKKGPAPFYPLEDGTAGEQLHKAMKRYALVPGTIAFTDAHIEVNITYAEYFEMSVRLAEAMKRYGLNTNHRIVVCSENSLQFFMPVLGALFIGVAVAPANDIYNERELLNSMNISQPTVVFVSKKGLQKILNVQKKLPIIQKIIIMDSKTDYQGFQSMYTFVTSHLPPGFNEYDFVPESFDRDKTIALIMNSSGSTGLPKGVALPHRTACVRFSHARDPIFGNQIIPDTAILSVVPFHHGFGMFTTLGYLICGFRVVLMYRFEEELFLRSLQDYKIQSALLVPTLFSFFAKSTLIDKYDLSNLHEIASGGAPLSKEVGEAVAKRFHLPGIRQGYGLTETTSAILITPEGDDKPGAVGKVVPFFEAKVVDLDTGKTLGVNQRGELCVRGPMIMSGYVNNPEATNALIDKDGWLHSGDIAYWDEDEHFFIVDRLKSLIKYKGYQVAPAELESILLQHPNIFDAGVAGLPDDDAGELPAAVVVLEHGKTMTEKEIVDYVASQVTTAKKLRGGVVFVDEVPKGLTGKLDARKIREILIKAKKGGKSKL", "test": "inhibition of purified Photinus pyralis luciferase – biochemical, luminescence, dose response (AID 1891)"}, "[8]": {"test": "viability loss in Vero cells – cytotoxicity control for Vif-APOBEC3G degradation inhibitor project, dose response (AID 1117358)", "type": "functional", "details": "Vero"}, "[9]": {"test": "Dd2 malaria parasite growth inhibition potency – SYBR Green, dry powder samples, dose response (AID 1159566);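 further: potency for growth inhibition with lower SYBR green DNA signal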", "type": "functional, cell-based"}, "[10]": {"test": "growth inhibition of PfATP4-mutant resistant parasites – NITD609-resistant line, SYBR Green, dry powder, dose response (AID 1159571);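 further: parasites synchronized at ring stage by sorbitol before testing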", "type": "functional, cell-based"}, "[11]": {"test": "P. falciparum Dd2 growth inhibitors, dose response, SYBR Green, cherry-picked samples (AID 1159567)", "type": "functional, cell-based"}, "[12]": {"test": "growth inhibition of yeast DHODH-expressing 3D7 parasites – SYBR Green, dry powder samples, dose response (AID 1159570);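 further: parasite growth measured after 72 hours of compound exposure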", "type": "functional, cell-based"}, "[13]": {"test": "M. tuberculosis H37Rv growth inhibitors, H37Rv strain (AID 1626)", "type": "functional"}, "[14]": {"test": "toxicity to human hepatoma HepG2 cells – cell-based, cherry-picked samples, cytotoxicity control, dose response (AID 1159577)", "type": "functional"}}, "note": "Calls of active or inactive are those of the source."}
{"smiles": "O=C(N/N=C\\c1ccc(-c2ccccc2[N+](=O)[O-])o1)C1COc2cc3ccccc3cc2O1", "note": "(configuration not stated)", "values": [{"measurement": "IC50", "setting": "[1]", "value": "> 20 µM (inactive)"}, {"measurement": "AC50", "setting": "Cytochrome P450 2C19", "value": "1.12 µM (inconclusive)"}, {"measurement": "AC50", "setting": "Cytochrome P450 1A2", "value": "3.55 µM (inconclusive)"}]}
{"smiles": "CC(OC(=O)/C=C/c1ccco1)C(=O)NC1CCCCC1", "note": "(configuration not stated)", "values": [{"measurement": "IC50", "setting": "[2]", "value": "> 100 µM (active)"}]}
{"smiles": "COc1ccc(C(=O)Nc2ccc(O)c3c(=O)cc(-c4cccc(Cl)c4)oc23)cc1", "values": [{"measurement": "CC50", "setting": "Vero [3]", "value": "2.74 µM (active)"}, {"measurement": "IC50", "setting": "Vero [4]", "value": "> 100 µM (active)"}]}
{"smiles": "O=C1NC(Cc2ccc(O)cc2)c2nc3ccc(Br)cc3c(=O)n2-c2ncccc21", "note": "(configuration not stated)", "values": [{"measurement": "AC50", "setting": "Caspase-6", "value": "35.4 µM (active)"}]}
{"smiles": "C[C@H]1CN([C@@H](C)CO)S(=O)(=O)c2ccc(C#CC3CCCCC3)cc2O[C@@H]1CN(C)Cc1cccnc1", "values": [{"measurement": "AC50", "setting": "[5]", "value": "10.4 µM (active)"}]}
{"smiles": "COc1ccccc1NC(=O)c1cc2ccc(O)cc2o/c1=N\\O", "values": [{"measurement": "EC50", "setting": "[6]", "value": "6.14 µM (active)"}, {"measurement": "IC50", "setting": "[2]", "value": "> 100 µM (active)"}, {"measurement": "EC50", "setting": "[7]", "value": "1.03 µM (active)"}, {"measurement": "CC50", "setting": "[8]", "value": "> 40 µM (active)"}]}
{"smiles": "COc1ccc2c3c(n(C)c2c1)[C@@H](CO)N(C(=O)C1CCC1)CC31CN(C(=O)Nc2cccc(F)c2)C1", "values": [{"measurement": "AC50", "setting": "[9]", "value": "0.779 µM (active)"}, {"measurement": "AC50", "setting": "[10]", "value": "0.535 µM (active)"}, {"measurement": "AC50", "setting": "[11]", "value": "2.35 µM (active)"}, {"measurement": "AC50", "setting": "[12]", "value": "0.515 µM (active)"}]}
{"smiles": "CCCc1nn(C)c(C(=O)Nc2ccc(CC)cc2)c1Cl", "values": [{"measurement": "IC50", "setting": "[13]", "value": "> 100 µM (active)"}]}
{"smiles": "COc1ccc(NC(=O)N(C)C[C@@H]2Oc3c(NC(=O)c4nc5ccccc5s4)cccc3C(=O)N([C@@H](C)CO)C[C@H]2C)cc1", "values": [{"measurement": "AC50", "setting": "[14]", "value": "> 39 µM (inactive)"}, {"measurement": "AC50", "setting": "[9]", "value": "1.3 µM (active)"}, {"measurement": "AC50", "setting": "[10]", "value": "0.606 µM (active)"}, {"measurement": "AC50", "setting": "[11]", "value": "1.96 µM (active)"}, {"measurement": "AC50", "setting": "[12]", "value": "0.499 µM (active)"}]}
